pIC50: −log10 of the molar value. Where two headings read alike, the source gives them in different places.
Legend:
Assay in all cases: microbe, parasite or virus in culture
Format in all cases: cell-based, Hepatitis C virus (HCV)
HCV replicon 1AY93H = settings: Replicon Assay A; for IC50: read-out: 1A Y93H IC50 (nM), replicon 1AY93H
Outline: (§1)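 HCV RNA levels were calculated from Ct values (minus intercept, divided by slope) of a Neo primer/probe standard curve, with cyclophilin quantified the same way. Cells were seeded at 2000/well and incubated with compound for 3 days in 5% serum and 0.5% DMSO.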

HCV replicon 1A = settings: Replicon Assay A
Outline: as §1

HCV replicon 2B = settings: Replicon Assay A; for IC50: read-out: 2B IC50 (nM), replicon 2B
Outline: as §1

[1] = read-out: 1A Y93H IC50, HCV replicon 1A Y93H
[2] = read-out: 2B IC50, HCV replicon 2B
[3] = Hepatitis C virus, read-out: 1A Y93H IC50, HCV replicon 1A Y93H
[4] = read-out: 1A Y93H IC50, replicon 1AY93H
[5] = Hepatitis C virus, HCV replicon 1A

| SMILES | pIC50 (HCV replicon 1AY93H; [1]) | pIC50 (HCV replicon 1A; HCV replicon 1A) | pIC50 (HCV replicon 2B; [2]) | pIC50 (HCV replicon 1A; replicon 1A) | pIC50 (HCV replicon 1AY93H; [4]) | further results |
| --- | --- | --- | --- | --- | --- | --- |
| COC(=O)N[C@H](C(=O)N1CCC[C@H]1c1cnc(-c2ccc3c(c2)cc2n3C(c3cc4ccccc4s3)Oc3cc(-c4cnc([C@@H]5CCCN5C(=O)[C@@H](NC(=O)OC)C5CCOCC5)[nH]4)ccc3-2)[nH]1)C1CCOCC1 (single isomer, unassigned) [Compound 809] | 9.09 | 10.80 | 8.38 | – | – | – |
| COC(=O)N[C@H](C(=O)N1CCC[C@H]1c1ncc(-c2cc(F)c3c(c2)OC(c2ccc(C4CCCCC4)s2)n2c-3cc3cc(-c4cnc([C@@H]5CCCN5C(=O)[C@@H](NC(=O)OC)C(C)C)[nH]4)ccc32)[nH]1)C(C)C (single isomer, unassigned) [Compound 530] | – | 10.88 | 9.31 | – | – | pIC50 (HCV replicon 1AY93H; [3]): 10.30 |
| COC(=O)N[C@H](C(=O)N1CCC[C@H]1c1ncc(-c2cc(F)c3c(c2)OC(c2cc4c(s2)C(C)(C)CC4)n2c-3cc3cc(-c4cnc([C@@H]5CCCN5C(=O)[C@@H](NC(=O)OC)C(C)C)[nH]4)ccc32)[nH]1)C(C)C (single isomer, unassigned) [Compound 392] | – | – | – | 11.42 | – | IC50 (HCV replicon 1AY93H; Hepatitis C virus): 0.0514 nM; IC50 (HCV replicon 2B; Hepatitis C virus): 0.373 nM |
| COC(=O)N[C@H](C(=O)N1CCC[C@H]1c1ncc(-c2cc(F)c3c(c2)OC(c2ccc(CC(C)C)s2)n2c-3cc3cc(-c4cnc([C@@H]5CCCN5C(=O)[C@@H](NC(=O)OC)C(C)C)[nH]4)ccc32)[nH]1)C(C)C (single isomer, unassigned) [Compound 522] | 10.11 | 10.62 | 9.38 | – | – | – |
| COC(=O)N[C@H](C(=O)N1CCC[C@H]1c1ncc(-c2cc(F)c3c(c2)OC(c2ccc(C4CC4)s2)n2c-3cc3cc(-c4cnc([C@@H]5CCCN5C(=O)[C@@H](NC(=O)OC)C5CCOCC5)[nH]4)ccc32)[nH]1)C(C)C (single isomer, unassigned) [Compound 126] | – | – | – | – | – | IC50 (HCV replicon 1AY93H; Hepatitis C virus): 0.27 nM; pIC50 (HCV replicon 1A; Hepatitis C virus, replicon 1A): 11.72; IC50 (HCV replicon 2B; Hepatitis C virus): 0.21 nM |
| COC(=O)N[C@H](C(=O)N1CCC[C@H]1c1ncc(-c2cc(F)c3c(c2)OC(c2scc4c2OCCO4)n2c-3cc3cc(-c4cnc([C@@H]5CCCN5C(=O)[C@@H](NC(=O)OC)C(C)C)[nH]4)ccc32)[nH]1)C(C)C (single isomer, unassigned) [Compound 524] | 7.84 | 11.12 | 8.33 | – | – | – |
| COC(=O)N[C@H](C(=O)N1C2CC2C[C@H]1c1ncc(-c2cc(F)c3c(c2)OC(c2ccc(C4CC4)s2)n2c-3cc3cc(-c4cnc([C@@H]5CCCN5C(=O)[C@@H](NC(=O)OC)C5C[C@@H](C)O[C@@H](C)C5)[nH]4)ccc32)[nH]1)C(C)C (single isomer, unassigned) [Compound 555] | 9.98 | 11.62 | 9.71 | – | – | – |
| COC(=O)NC(C(=O)N1CCC[C@H]1c1ncc(-c2ccc3c(c2)cc2n3C(c3ccc(C4CC4)s3)Oc3cc(-c4cnc([C@@H]5CCCN5C(=O)[C@@H](NC(=O)OC)C(C)C)[nH]4)cc(F)c3-2)[nH]1)C1CC2CCC(C1)O2 (single isomer, unassigned) [Compound 181] | – | – | – | 11.64 | – | IC50 (HCV replicon 1AY93H; Hepatitis C virus): 0.054 nM; IC50 (HCV replicon 2B; Hepatitis C virus): 0.083 nM |
| COC(=O)N[C@H](C(=O)N1CCC[C@H]1c1ncc(-c2ccc3c(c2)OC(c2cc4ccccc4s2)n2c-3cc3cc(-c4cnc([C@@H]5C[C@H]6C[C@H]6N5C(=O)[C@@H](NC(=O)OC)C(C)C)[nH]4)ccc32)[nH]1)C(C)C (single isomer, unassigned) [Compound 608] | 10.28 | 11.46 | 10.51 | – | – | – |
| COC(=O)N[C@H](C(=O)N1CCC[C@H]1c1ncc(-c2cc(F)c3c(c2)OC(c2ccc(CC(F)(F)F)s2)n2c-3cc3cc(-c4cnc([C@@H]5CCCN5C(=O)[C@@H](NC(=O)OC)C(C)C)[nH]4)ccc32)[nH]1)C(C)C (single isomer, unassigned) [Compound 124] | – | – | – | – | – | IC50 (HCV replicon 1AY93H; Hepatitis C virus): 1.38 nM; pIC50 (HCV replicon 1A; Hepatitis C virus, replicon 1A): 11.74; IC50 (HCV replicon 2B; Hepatitis C virus): 3.4 nM |
| COC(=O)NC(C(=O)N1CCC[C@H]1c1ncc(-c2ccc3c(c2)cc2n3C(c3ccc(C4CC4)s3)Oc3cc(-c4cnc([C@@H]5CCCN5C(=O)[C@@H](NC(=O)OC)C(C)C)[nH]4)cc(F)c3-2)[nH]1)C1CCOC(C)(C)C1 (single isomer, unassigned) [Compound 220] | – | – | – | 11.68 | 9.28 | pIC50 (HCV replicon 2B; read-out: 2B IC50, replicon 2B): 9.03 |
| COC(=O)N[C@H](C(=O)N1CCC[C@H]1c1ncc(-c2cc(F)c3c(c2)OC(c2ccc(CC4CC4)s2)n2c-3cc3cc(-c4cnc([C@@H]5C[C@H]6C[C@H]6N5C(=O)[C@@H](NC(=O)OC)C(C)C)[nH]4)ccc32)[nH]1)C(C)C (single isomer, unassigned) [Compound 390] | – | – | – | 11.52 | 9.50 | pIC50 (HCV replicon 2B; read-out: 2B IC50, replicon 2B): 9.12 |
| COC(=O)NC(C(=O)N1CCC[C@H]1c1ncc(-c2ccc3c(c2)cc2n3C(c3ccc(C4CC4)s3)Oc3cc(-c4cnc([C@@H]5CCCN5C(=O)[C@@H](NC(=O)OC)C(C)C)[nH]4)cc(F)c3-2)[nH]1)C1CCO[C@H](C)C1 (single isomer, unassigned) [Compound 140] | – | – | – | 10.39 | 8.26 | pIC50 (HCV replicon 2B; read-out: 2B IC50, replicon 2B): 8.06 |
| COC(=O)N[C@H](C(=O)N1CCC[C@H]1c1nc(-c2ccc3c(c2)OC(c2ccc(C)s2)n2c-3cc3cc(-c4c[nH]c([C@@H]5NCCN5C(=O)[C@@H](NC(=O)OC)C(C)C)n4)ccc32)c[nH]1)C(C)C (single isomer, unassigned) [Compound 701] | 10.07 | 11.52 | 9.82 | – | – | – |
| COC(=O)N[C@H](C(=O)N1CCC[C@H]1c1ncc(-c2cc(F)c3c(c2)OC(c2ccc(C(C)CF)s2)n2c-3cc3cc(-c4cnc([C@@H]5CCCN5C(=O)[C@@H](NC(=O)OC)C(C)C)[nH]4)ccc32)[nH]1)C(C)C (single isomer, unassigned) [Compound 332] | – | – | – | – | – | IC50 (HCV replicon 1AY93H; Hepatitis C virus): 0.765 nM; pIC50 (HCV replicon 1A; Hepatitis C virus, replicon 1A): 11.96; pIC50 (HCV replicon 2B; read-out: 2B IC50, replicon 2B): 8.86 |
| COC(=O)N[C@H](C(=O)N1CCC[C@H]1c1ncc(-c2cc(F)c3c(c2)OC(c2ccc(CC(C)C)s2)n2c-3cc3cc(-c4cnc([C@@H]5CCCN5C(=O)[C@@H](NC(=O)OC)C(C)C)[nH]4)ccc32)[nH]1)C(C)C (single isomer, unassigned) [Compound 521] | 9.16 | 11.19 | 8.46 | – | – | – |
| COC(=O)N[C@H](C(=O)N1CCC[C@H]1c1ncc(-c2cc(F)c3c(c2)OC(c2ccc(OC)s2)n2c-3cc3cc(-c4cnc([C@@H]5CCCN5C(=O)[C@@H](NC(=O)OC)C(C)C)[nH]4)ccc32)[nH]1)C(C)C (single isomer, unassigned) [Compound 19] | – | – | – | – | 9.30 | pIC50 (HCV replicon 1A; Hepatitis C virus, replicon 1A): 11.80; pIC50 (HCV replicon 2B; read-out: 2B IC50, replicon 2B): 8.73 |
| COC(=O)N[C@H](C(=O)N1CCC[C@H]1c1nc(-c2ccc3c(c2)OC(c2ccc(Cl)s2)n2c-3cc3cc(-c4c[nH]c([C@@H]5CCCN5C(=O)[C@@H](NC(=O)OC)C5CCOCC5)n4)ccc32)c[nH]1)C1CCOCC1 (mixture of isomers) [Compound 727] | – | – | – | – | – | pIC50 (HCV replicon 1AY93H; [3]): 10.25; pIC50 (HCV replicon 1A; [5]): 10.62; pIC50 (HCV replicon 2B; Hepatitis C virus, read-out: 2B IC50, HCV replicon 2B): 10.57 |
| COC(=O)N[C@H](C(=O)N1CCC[C@H]1c1ncc(-c2cc(F)c3c(c2)OC(c2cc(F)c(C4CC4)s2)n2c-3cc3cc(-c4cnc([C@@H]5CCCN5C(=O)[C@@H](NC(=O)OC)C(C)C)[nH]4)ccc32)[nH]1)C(C)C (single isomer, unassigned) [Compound 71] | – | – | – | – | 8.96 | pIC50 (HCV replicon 1A; Hepatitis C virus, replicon 1A): 11.89; pIC50 (HCV replicon 2B; read-out: 2B IC50, replicon 2B): 8.41 |
| COC(=O)NC(C(=O)N1CCCC1c1ncc(-c2cc(F)c3c(c2)OC(c2ccc(C4CCC4)s2)n2c-3cc3cc(-c4cnc(C5CCCN5C(=O)C(NC(=O)OC)C5CC(C)OC(C)C5)[nH]4)ccc32)[nH]1)C(C)C (single isomer, unassigned) [Compound 373] | – | – | – | 12.00 | – | pIC50 (HCV replicon 1AY93H; replicon 1AY93H, read-out: 1A Y93H IC50): 9.61; pIC50 (HCV replicon 2B; replicon 2B, read-out: 2B IC50): 9.81 |
| COC(=O)NC(C(=O)N1CCC[C@H]1c1ncc(-c2ccc3c(c2)cc2n3C(c3ccc(C(C)C)s3)Oc3cc(-c4cnc([C@@H]5CCCN5C(=O)[C@@H](NC(=O)OC)C(C)C)[nH]4)cc(F)c3-2)[nH]1)C1C[C@@H](C)O[C@@H](C)C1 (single isomer, unassigned) [Compound 235] | – | – | – | 11.89 | 8.41 | pIC50 (HCV replicon 2B; read-out: 2B IC50, replicon 2B): 7.99 |
| COC(=O)N[C@H](C(=O)N1CCC[C@H]1c1ncc(-c2cc(F)c3c(c2)OC(c2cc4ccccc4s2)n2c-3cc3cc(-c4cnc([C@@H]5C[C@H]6C[C@H]6N5C(=O)[C@@H](NC(=O)OC)C(C)C)[nH]4)ccc32)[nH]1)C(C)C (single isomer, unassigned) [Compound 614] | 8.66 | – | – | – | – | pIC50 (HCV replicon 1A; [5]): 11.82 |
| COC(=O)NC(C(=O)N1CCC[C@H]1c1ncc(-c2ccc3c(c2)cc2n3C(c3ccc(C4CC4)s3)Oc3cc(-c4cnc([C@@H]5C[C@@H](F)CN5C(=O)[C@@H](NC(=O)OC)C(C)C)[nH]4)cc(F)c3-2)[nH]1)C(C)(C)F (single isomer, unassigned) [Compound 113] | – | – | – | 10.37 | 8.41 | – |
| COC(=O)NC(C(=O)N1[C@@H]2C[C@@H]2C[C@H]1c1ncc(-c2ccc3c(c2)cc2n3C(c3ccc(C4CC4)s3)Oc3cc(-c4cnc([C@@H]5CCCN5C(=O)[C@@H](NC(=O)OC)C(C)C)[nH]4)cc(F)c3-2)[nH]1)C1C[C@@H](C)O[C@@H](C)C1 (single isomer, unassigned) [Compound 274] | – | – | – | 10.66 | 8.10 | – |
| COC(=O)NC(C(=O)N1CCC[C@H]1c1ncc(-c2ccc3c(c2)cc2n3C(c3cc(C)c(C)s3)Oc3cc(-c4cnc([C@@H]5CCCN5C(=O)[C@@H](NC(=O)OC)C(C)C)[nH]4)cc(F)c3-2)[nH]1)C(C)(C)F (single isomer, unassigned) [Compound 42] | – | – | – | 10.54 | 7.37 | – |

Reference: US20160257697A1, “THIOPHENE-SUBSTITUTED TETRACYCLIC COMPOUNDS AND METHODS OFUSE THEREOF FOR THE TREATMENT OF VIRAL DISEASES” (priority 2013, published 2016)
